# In patent US20180022922A1, “METHOD FOR PREPARING A COLORANT FOR USE IN A HOT MELT INK” (Océ Holding B.V., priority 2016, published 2018):
# Assay: Migration test (paper chromatography)
# Assay type: physicochemical
# Conditions: Wattmann 1-CHR paper, eluent cyclohexane/toluene 50 wt %/50 wt %, judged qualitatively (FIG. 5)
# Protocol: A chromatography test is performed to provide an (comparative) indication of migration of a colorant on a print substrate. For this, solutions of the colorants to be tested, in dichloromethane are prepared. The prepared solutions contain substantially equal concentrations of colorant. For the purpose of the present invention, the eluent solution consists of a cyclohexane/toluene mixture (50 wt %/50 wt %). A sheet of Wattmann 1-CHR paper is used as a substrate. At about 1 cm from the bottom edge of the paper sheet dots of equal size of the colorant solutions are made (by using a pipette). Each dot is positioned at substantially the same distance from the bottom edge of the paper sheet. Then the sheet is left to dry. A beaker is filled with eluent solution such that the level of eluent solution is less than 1 cm. The dried test sample (paper sheet provided with colorant dots) is placed in the beaker such that the lower edge of the paper sheet touches the bottom of the beaker. Due to capillary flow the eluent solution will flow upward in the paper sheet. This set up is left to stand until the wetted height of paper sheet is at least 1.5 times the height to which the most soluble colorant rises. The results are judged qualitatively. If the colorant dot remains at the starting position, migration is not likely to occur. […]
structure (smiles),measurement,value
Cn1c(=O)cc2c3c(c(NC4CCCCC4)ccc31)C(=O)c1ccccc1-2 [SR149],migration of colorant on paper substrate,significant migration
